# Several values for one entry are separate records, joined by “and”; a condition that tells them apart may be missing. Identical values can stand only once.
# Test system: 252836-082-R-J2-PDC tumor spheroids, viability
# Assay: Anticancer human tumor 252836-082-R-J2-PDC patient-derived head and neck squamous cell carcinoma cell line growth inhibition [PI3K]
# Conditions: spheroids with HUVEC and MSC; for IC50: curve of first compound; for viability, T/C: stronger effect = lower value
# How it was run: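 Viability of mixed-cell spheroids was determined after exposure to pairwise combinations, one partner being inavolisib, alpelisib, duvelisib or copanlisib. Highest tested concentration matched clinical Cmax where known and 10 microM where not, descending in half-log steps.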
# [1] = second compound 0.0316 µM, first compound 0.0316 µM
# [2] = second compound 0.0316 µM, first compound 0.1 µM
# [3] = second compound 0.0316 µM, first compound 0.316 µM
# [4] = second compound 0.0316 µM, first compound 1 µM
# [5] = second compound 0.1 µM, first compound 0.0316 µM
# [6] = second compound 0.1 µM, first compound 0.1 µM
# [7] = second compound 0.1 µM, first compound 0.316 µM
# [8] = second compound 0.1 µM, first compound 1 µM
# [9] = second compound 0.316 µM, first compound 0.0316 µM
# [10] = second compound 0.316 µM, first compound 0.1 µM
# [11] = second compound 0.316 µM, first compound 0.316 µM
# [12] = second compound 0.316 µM, first compound 1 µM
# [13] = second compound 1 µM, first compound 0.0316 µM
# [14] = second compound 1 µM, first compound 0.1 µM
# [15] = second compound 1 µM, first compound 0.316 µM
# [16] = second compound 1 µM, first compound 1 µM
# [17] = second compound 0.00316 µM, first compound 0.00316 µM
# [18] = second compound 0.00316 µM, first compound 0.01 µM
# [19] = second compound 0.00316 µM, first compound 0.0316 µM
# [20] = second compound 0.00316 µM, first compound 0.1 µM
# [21] = second compound 0.01 µM, first compound 0.00316 µM
# [22] = second compound 0.01 µM, first compound 0.01 µM
# [23] = second compound 0.01 µM, first compound 0.0316 µM
# [24] = second compound 0.01 µM, first compound 0.1 µM
# [25] = second compound 0.0316 µM, first compound 0.00316 µM
# [26] = second compound 0.0316 µM, first compound 0.01 µM
# [27] = second compound 0.1 µM, first compound 0.00316 µM
# [28] = second compound 0.1 µM, first compound 0.01 µM
# [29] = second compound 0.316 µM, first compound 0.00316 µM
# [30] = second compound 0.316 µM, first compound 0.01 µM
# [31] = second compound 1 µM, first compound 0.00316 µM
# [32] = second compound 1 µM, first compound 0.01 µM
# 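Further: spheroids exposed to agents for seven days before readout.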
# 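Wherever viability, T/C is given: percent of vehicle DMSO control viability so 100% = untreated growth.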
smiles,measurement,setting,value
Cn1ncc(Cl)c1-c1cc(C(=O)NC(CN)Cc2cccc(F)c2)sc1Cl (configuration not stated) + CC(Nc1ncnc2nc[nH]c12)c1cc2cccc(Cl)c2c(=O)n1-c1ccccc1,IC50,second compound 0.0316 µM,0.642 µM
same,IC50,second compound 0.1 µM,0.713 µM
same,IC50,second compound 0.316 µM,0.496 µM
same,IC50,second compound 1 µM,0.623 µM
same,IC50,second compound 3.16 µM,0.538 µM
same,IC50,second compound 10 µM,0.273 µM
same,"viability, T/C",[1],90.3%
same,"viability, T/C",[2],65%
same,"viability, T/C",[3],63.8%
same,"viability, T/C",[4],44.5%
same,"viability, T/C","second compound 0.0316 µM, first compound 3.16 µM",30%
same,"viability, T/C","second compound 0.0316 µM, first compound 10 µM",12.1%
same,"viability, T/C",[5],100%
same,"viability, T/C",[6],81%
same,"viability, T/C",[7],59.7%
same,"viability, T/C",[8],43.9%
same,"viability, T/C","second compound 0.1 µM, first compound 3.16 µM",33%
same,"viability, T/C","second compound 0.1 µM, first compound 10 µM",12.2%
same,"viability, T/C",[9],80.9%
same,"viability, T/C",[10],70.3%
same,"viability, T/C",[11],56.2%
same,"viability, T/C",[12],38.8%
same,"viability, T/C","second compound 0.316 µM, first compound 3.16 µM",28.2%
same,"viability, T/C","second compound 0.316 µM, first compound 10 µM",12%
same,"viability, T/C",[13],84%
same,"viability, T/C",[14],80.4%
same,"viability, T/C",[15],58.3%
same,"viability, T/C",[16],40.7%
same,"viability, T/C","second compound 1 µM, first compound 3.16 µM",29.5%
same,"viability, T/C","second compound 1 µM, first compound 10 µM",13%
same,"viability, T/C","second compound 3.16 µM, first compound 0.0316 µM",76.5%
same,"viability, T/C","second compound 3.16 µM, first compound 0.1 µM",71.8%
same,"viability, T/C","second compound 3.16 µM, first compound 0.316 µM",53.8%
same,"viability, T/C","second compound 3.16 µM, first compound 1 µM",43.3%
same,"viability, T/C","second compound 3.16 µM, first compound 3.16 µM",27.8%
same,"viability, T/C","second compound 3.16 µM, first compound 10 µM",15.5%
same,"viability, T/C","second compound 10 µM, first compound 0.0316 µM",57%
same,"viability, T/C","second compound 10 µM, first compound 0.1 µM",60.9%
same,"viability, T/C","second compound 10 µM, first compound 0.316 µM",49.3%
same,"viability, T/C","second compound 10 µM, first compound 1 µM",30.7%
same,"viability, T/C","second compound 10 µM, first compound 3.16 µM",27%
same,"viability, T/C","second compound 10 µM, first compound 10 µM",14.1%
CC(C)n1nc(-c2ccc3oc(N)nc3c2)c2c(N)ncnc21 + COc1c(OCCCN2CCOCC2)ccc2c3n(c(=NC(=O)c4cnc(N)nc4)nc12)CCN3,IC50,second compound 0.00316 µM,0.019 µM
same,IC50,second compound 0.01 µM,0.0165 µM
same,IC50,second compound 0.0316 µM,0.00333 µM
same,IC50,second compound 0.1 µM,< 0.000316 µM
same,IC50,second compound 0.316 µM,< 0.000316 µM
same,IC50,second compound 1 µM,< 0.000316 µM
same,"viability, T/C","second compound 0.00316 µM, first compound 0.000316 µM",81.7%
same,"viability, T/C","second compound 0.00316 µM, first compound 0.001 µM",81.9%
same,"viability, T/C",[17],74.9%
same,"viability, T/C",[18],58.1%
same,"viability, T/C",[19],43.1%
same,"viability, T/C",[20],20.8%
same,"viability, T/C","second compound 0.01 µM, first compound 0.000316 µM",78.7%
same,"viability, T/C","second compound 0.01 µM, first compound 0.001 µM",73.5%
same,"viability, T/C",[21],74.9%
same,"viability, T/C",[22],57.8%
same,"viability, T/C",[23],38.5%
same,"viability, T/C",[24],20.5%
same,"viability, T/C","second compound 0.0316 µM, first compound 0.000316 µM",58.3%
same,"viability, T/C","second compound 0.0316 µM, first compound 0.001 µM",58.4%
same,"viability, T/C",[25],48.4%
same,"viability, T/C",[26],42.1%
same,"viability, T/C",[1],31.4%
same,"viability, T/C",[2],15.3%
same,"viability, T/C","second compound 0.1 µM, first compound 0.000316 µM",30.4%
same,"viability, T/C","second compound 0.1 µM, first compound 0.001 µM",34.8%
same,"viability, T/C",[27],33.1%
same,"viability, T/C",[28],28.1%
same,"viability, T/C",[5],18.3%
same,"viability, T/C",[6],9.85%
same,"viability, T/C","second compound 0.316 µM, first compound 0.000316 µM",17.8%
same,"viability, T/C","second compound 0.316 µM, first compound 0.001 µM",18.9%
same,"viability, T/C",[29],12.1%
same,"viability, T/C",[30],9.92%
same,"viability, T/C",[9],8.75%
same,"viability, T/C",[10],2.66%
same,"viability, T/C","second compound 1 µM, first compound 0.000316 µM",4.87%
same,"viability, T/C","second compound 1 µM, first compound 0.001 µM",3.85%
same,"viability, T/C",[31],4.39%
same,"viability, T/C",[32],3.18%
same,"viability, T/C",[13],3.53%
same,"viability, T/C",[14],2.06%
Cn1cnc2c(F)c(Nc3ccc(Br)cc3Cl)c(C(=O)NOCCO)cc21,"viability, T/C",compound 0.00949 µM,80.3% and 86.2% (2×) and 89.4%
same,"viability, T/C",compound 0.03 µM,93.8% [middle of 4 runs]
same,"viability, T/C",compound 0.0949 µM,81.6% [middle of 4 runs]
same,"viability, T/C",compound 0.3 µM,86.9% [middle of 4 runs]
same,"viability, T/C",compound 0.949 µM,72.7% [middle of 4 runs]
same,"viability, T/C",compound 3 µM,49.5% [middle of 4 runs]
CCN1CCN(Cc2ccc(Nc3ncc(F)c(-c4cc(F)c5nc(C)n(C(C)C)c5c4)n3)nc2)CC1 + CC(Nc1ccc2c(c1)OCCn1cc(N3C(=O)OCC3C(F)F)nc1-2)C(N)=O,IC50,second compound 0.00316 µM,> 1 µM
same,IC50,second compound 0.01 µM,> 1 µM
same,IC50,second compound 0.0316 µM,> 1 µM
same,IC50,second compound 0.1 µM,> 1 µM
same,IC50,second compound 0.316 µM,0.0361 µM
same,IC50,second compound 1 µM,< 0.00316 µM
same,"viability, T/C",[17],87.8%
same,"viability, T/C",[18],86.1%
same,"viability, T/C",[19],75.3%
same,"viability, T/C",[20],93.1%
same,"viability, T/C","second compound 0.00316 µM, first compound 0.316 µM",82.7%
same,"viability, T/C","second compound 0.00316 µM, first compound 1 µM",76.5%
same,"viability, T/C",[21],90.3%
same,"viability, T/C",[22],82.5%
same,"viability, T/C",[23],94.4%
same,"viability, T/C",[24],78.7%
same,"viability, T/C","second compound 0.01 µM, first compound 0.316 µM",90%
same,"viability, T/C","second compound 0.01 µM, first compound 1 µM",70.3%
same,"viability, T/C",[25],79.1%
same,"viability, T/C",[26],79.6%
same,"viability, T/C",[1],73%
same,"viability, T/C",[2],74.1%
same,"viability, T/C",[3],80.6%
same,"viability, T/C",[4],81.3%
same,"viability, T/C",[27],73.7%
same,"viability, T/C",[28],59.7%
same,"viability, T/C",[5],58.8%
same,"viability, T/C",[6],66.5%
same,"viability, T/C",[7],52.3%
same,"viability, T/C",[8],54.2%
same,"viability, T/C",[29],51.2%
same,"viability, T/C",[30],47.4%
same,"viability, T/C",[9],51.5%
same,"viability, T/C",[10],53.3%
same,"viability, T/C",[11],50.8%
same,"viability, T/C",[12],44.3%
same,"viability, T/C",[31],47%
same,"viability, T/C",[32],43.9%
same,"viability, T/C",[13],43.5%
same,"viability, T/C",[14],36.8%
same,"viability, T/C",[15],40.5%
same,"viability, T/C",[16],31.8%

# From PubChem BioAssay AID1963985 (Molecular Pharmacology Branch, DTP, NCI, 2024)
